Assays:
[1] = system: pseudomonas aeruginosa strain N 450; assay: Model of sepsis (intramuscular pseudomonas aeruginosa culture in 10% CaCl2); details: D2O consumed 2 days before and 9 days after infection, fig. 8
[2] = system: staphylococcus toxin; design: species or system outbred white rats; details: rat, in vivo
[3] = system: pneumococcus; assay: Bacterial shock model (intraperitoneal pneumococcus culture, minimal lethal dose)
[4] = system: hippocampus of old rats; assay: Long term potentiation (LTP, model of ageing): electrophysiology of hippocampal slices from treated old rats; type: in vivo; design: PS amplitude on the average: unit not given here
Text: The following examples illustrate the invention: Example 1. Long term potentiation (LTP, model of ageing) The adequacy of the choice of the model is due the following factors: • LTP phenomenon relates to function of memory, being an initial stage in a chain of processes, resulting in formation of traces of long-term memory, since the impairment of LTP is accompanied on the behavioral level by impairment of memory, first of all on current events (Landfield . W., Lynch G., " Impaired monosynaptic potentiation of in vitro hippocmpal slices aged memory-deficient rats., J. Gerontology, 1977, v.32, 5, pp. 523-533; Landfield P.W., Pilter T.A. Applegate M. D., " The aged hippocampus: A model system for studies on mechanisms of behavioral plasticity and brain ageing) The Hippocampus, 1986, v.3, pp. 323-367). • the decrease of the content of various protein structures in old animals is reported (Monaghan D.T.et al is observed., " Age dependent loss of NMDA receptors in rodent brains ", Soc. Neurosci. Abstr.,1988, v.14, p.486; Angeluoci L., Imperato A.. " Age-dependent loss of muscarinic receptors and cholinergic impairment in the rats brain ", Neuroscience Letters, Suppl. 39, 1990, p. 8), • the degree of dementia was reported to correlate with decrease of the membrane surface density of N-methyl-D-aspartate receptors, responsible for LTP, in patients with SDAT (Represa A., et al., " Is senile dementia of the Alzheimer type associated with hippocampal plasticity", Brain research, 1988, v.457, 355-359). the decrease of the rate of overall protein synthesis and, as a consequence, deficits of various proteins and products of non-protein synthesis is characteristic not only for a brain, but also for all organs and systems and are the mostly ascertained facts, concerning ageing, and recognised markers of ageing (Markides S.C. " Protein synthesis and degradation during aging and senescence ", Biol. Rev., 19836 v.58, 343-422; Rattan S. I., " Ageing and discase: proteins as the molecular link ", Perspect. Biol and Med., 1991, v.34, 4. Pp 526-533).
(§1) The experiments were performed on 20 old (29-30 months) outbred female rats. During 21 days control group (9 rats) received usual water as free drinking, and experimental group (11 rats) drank water, containing ? 2O. Control weighing and visual observation of their behaviour was carried out. Then for 6 days both groups received usual water "to wash out " heavy water from the body in order to put both groups in equal conditions in the subsequent experiments. After that the experiment was carried out as follows: each day one control or one experimental animal was narcotised by urethane (1,3 g/kg) and decapitated. The hippocampal slices then were prepared, which were transferred to the special thermostatic chamber, where they were incubated during the experiment. The chamber was perfused at the rate of 2 ml/minute with physiological solution (content in mM: NaCl-124; KCl-5,0; CaCl2-2,5; MgSO4- 2,4; KH2PO4-1,25; NaHCO3-26; glucose-15; pH―7,4-7,5;), saturated with carbogen (95 % O2 and 5 % CO2). The slices were stored for 20-30 minutes at room temperature, then temperature was increased up to 28-29°C. Electrical activity was recorded in 1-1,5 hour after preparation of slices. The recording glass microelectrodes, filled with 2M solution of sodium citrate (electrical resistance 5-25 Mo ? ) were inserted into the layer of pyramidal neurones. Electrical stimulation of Shaffer's collaterals was made through double-barrel glass microelectrodes, filled with physiological solution, with the resistance up to 2 Mo ? , by the rectangular pulses (amplitude up to 40 V, duration 0.2 msec, frequency 0,2-0,3 Hz). Data processing was made on the computer (" Electronics D3-28 ").
Results . On the average in control group weight of the animals was : at the 1-st day 365 ± 37 g, at 21-th day 380 ± 38 g. […]

[5] = Body weight of old rats during 21 days of drinking water containing D2O; type: in vivo; details: for weight of the animals: experimental group
Procedure: as §1

**Q.** Which results are given for deuterium oxide [heavy water]?
**A.** delay of lethal outcomes [1]: 3 days; decrease of lethality ([1]; vs control): 3 times; survival of animals [2]: 40%; time of dying [2]: delay of the time of dying; experimental animals still alive ([3]; in 48 hours, when 100% of control animals had died, fig. 5): 50%; dying delayed with respect to control animals ([3]; pneumococcus culture, 10 mice, D2O drunk 2-4 days before, fig. 5): about 24 hours; dying delayed ([3]; with additional treatment during shock to maintain blood circulation, fig. 6): 48 h; LTP occurred (share of rats) ([4]; 7 of 10 old rats of experimental group): 70%; Focal evoked potentials (FEP) with preserved pre- and postsynaptic components registered (share of HSs) ([4]; 12 of 18 experimental hippocampal slices): 67%; spontaneous pulse activity of pyramidal neurons of field CA1 detected (share of HSs) ([4]; 13 of 18 experimental hippocampal slices, 21 days D2O, 6 days wash out): 72%; LTP occurred (number of HSs) ([4]; LTP = PS amplitude after tetanization increased more than by 25 %, sustained more than 30 minutes): 10 of 18; increment of the potentiated response ([4]; after second tetanization, example of figure 4): 730%; PS amplitude increased on the average (LTP) ([4]; after tetanization, experimental group): 151 % + 26; effect of repeated tetanization ([4]; all cases, experimental group): further increase of the potentiated response; persistence of restored LTP after cancellation of treatment ([4]; last three treated animals tested on 25-th, 26-th and 27-th days after D2O cancellation): persisted long (about month) after cancellation of treatment; PS amplitude on the average ([4]; population spikes in experimental HSs): 217 ± 55; average increase of amplitude PS (frequency potentiation) ([4]; stimulation by frequency of 1 Hz): 55±31%; weight of the animals ([5]; at 21-th day of drinking water containing D2O): 375 ± 34 g; weight of the animals ([5]; at the first day, old (29-30 months) female rats): 373 ± 25 g; differences in animals weight and in the weight increment between the two groups ([5]; experimental vs control group, 21 days): No statistically significant differences

— patent EP0893123A1, “AGENT FOR USE IN THE PREVENTION AND TREATMENT OF DISORDERS ASSOCIATED WITH VARIOUS TYPES OF AGEING” (Peganov, Eduard Maximovich, priority 1995, dated 1997)
